The values that follow are results of earlier work, collected in patent publication US20110311589A1 (priority 2008, published 2011).

The series relates to helminthiasis. The following applies: in vivo.

As to `c1ccc([C@H]2CN3CCSC3=N2)cc1` [Levamisole], the “Dosage level at which particularly effective as anthelmintic” value is recorded as “approximately 7.5 mg per kg of animal body weight”.
